According to patent US11433053B2, “LSD1 inhibitor and preparation method and application thereof” (CSPC ZHONGQI PHARMACEUTICAL TECHNOLOGY (SHIJIAZHUANG) CO., …, priority 2017, dated 2022):

What follows are compounds tested against human LSD1 (Homo sapiens (Human), UniProt O60341) (assay: Evaluation of enzyme activity: LSD1 fluorescence coupling enzyme assay (HRP/Amplex Red)). Settings: human LSD1, histone H3(1-21)K4me2 peptide 10 μM, 30 min pre-incubation.
Assay type: biochemical
Protocol: The purpose of this test is to test the in vitro inhibitory activities of the compounds against LSD1. The enzyme used in this experiment was human LSD1, and the standard substrate was histone H3(1-21)K4me2 peptide (10 μM). HCI-2509 (SP2509) was used as reference compound, and the fluorescence coupling enzyme assay was employed. The production of FAD-dependent H2O2 as a result of demethylase activity of LSD1 was measured by coupling with HRP and Amplex Red. Compounds as well as control compound HCl-2509 were tested in 10-dose IC50 mode with a 3-fold serial dilution in duplicate starting at 10 μm. All compounds were pre-incubated 30 mins with enzyme before added substrate to start reaction. Fluorescence measurement: Ex/Em=535/590 by EnVision.
The test compound's inhibitory activities against LSD11 was classified as: + for IC50≤50 nM; ++ for IC50>50 nM and ≤100 nM; +++ for IC50>100 nM and ≤500 nM, and the results are shown in Table 1.

Q: With O=C(O)c1ccc(C(=O)N2CCC(c3nc(C4(CN[C@H]5C[C@@H]5c5ccccc5)CC4)no3)CC2)cc1 [Example 107] as the compound, how does the IC50 read?
A: 100 to 500 nM

Q: With CN(C)[C@H]1CC[C@H](c2nc(C3(CN[C@H]4C[C@@H]4c4ccccc4)CC3)no2)CC1 [Example 108] as the compound, how does the IC50 read?
A: 100 to 500 nM

Q: For Cn1cc2c(n1)CN(CC1(CN[C@H]3CC3c3ccccc3)CC1)C2 (some centres unmarked) [Example 109], which IC50 is on record?
A: ≤ 50 nM

Q: For Cn1ncc2c1CN(CC1(CN[C@H]3CC3c3ccccc3)CC1)C2 (some centres unmarked) [Example 110], which IC50 is on record?
A: ≤ 50 nM

Q: Which IC50 does the source give for O=C(O)[C@H](Cc1ccccc1)NCC1(CN[C@@H]2C[C@H]2c2ccccc2)CC1 [Example 112] here?
A: 100 to 500 nM

Q: Which IC50 does the source give for CN(C)[C@H]1CC[C@H](c2nc(C3(CN[C@@H]4C[C@H]4c4ccccc4)CC3)no2)CC1 [Example 115] here?
A: 100 to 500 nM

Q: c1ccc(C2C[C@@H]2NCC2(c3cccnc3)CCC2)cc1 (some centres unmarked) [Example 119] was tested. Which IC50 did it give?
A: ≤ 50 nM

Q: For c1ccc(C2C[C@@H]2NCC2(c3ccccc3)CCCC2)cc1 (some centres unmarked) [Example 121], which IC50 is on record?
A: ≤ 50 nM

Q: How did the IC50 turn out when c1ccc(C2C[C@@H]2NCC2(c3ccccc3)CCC2)cc1 (some centres unmarked) [Example 122] was run?
A: ≤ 50 nM

Q: With Clc1ccc(C2(CN[C@H]3CC3c3ccccc3)CCC2)cc1 (some centres unmarked) [Example 123] as the compound, how does the IC50 read?
A: ≤ 50 nM

Q: How did the IC50 turn out when c1ccc(C2C[C@@H]2NCC2(c3noc(-c4ccccn4)n3)CCC2)cc1 (some centres unmarked) [Example 125] was run?
A: ≤ 50 nM

Q: How did the IC50 turn out when FC(F)(F)c1ccnc(-c2nc(C3(CN[C@H]4CC4c4ccccc4)CCC3)no2)c1 (some centres unmarked) [Example 126] was run?
A: ≤ 50 nM

Q: With c1ccc([C@H]2C[C@@H]2NCC2(c3noc(-c4cncnc4)n3)CCC2)cc1 [Example 128] as the compound, how does the IC50 read?
A: 50 to 100 nM

Q: How did the IC50 turn out when c1ccc(C2C[C@@H]2NCC2(c3noc(-c4cccnc4)n3)CCC2)cc1 (some centres unmarked) [Example 130] was run?
A: ≤ 50 nM

Q: How did the IC50 turn out when FC(F)(F)c1cc(-c2nc(C3(CN[C@H]4CC4c4ccccc4)CCC3)no2)ccn1 (some centres unmarked) [Example 131] was run?
A: ≤ 50 nM

Q: With O=C(O)c1ccccc1-c1nc(C2(CN[C@H]3C[C@@H]3c3ccccc3)CCC2)no1 [Example 134] as the compound, how does the IC50 read?
A: 100 to 500 nM

Q: For O=C(O)c1cccc(-c2nc(C3(CN[C@H]4CC4c4ccccc4)CCC3)no2)c1 (some centres unmarked) [Example 135], which IC50 is on record?
A: 100 to 500 nM

Q: With c1ccc(C2C[C@@H]2NCC2(c3noc(-c4ccc(-n5cnnc5)cc4)n3)CCC2)cc1 (some centres unmarked) [Example 136] as the compound, how does the IC50 read?
A: ≤ 50 nM

Q: c1ccc([C@H]2C[C@@H]2NCC2(c3cc([C@H]4CCCNC4)on3)CCC2)cc1 [Example 138] was tested. Which IC50 did it give?
A: 50 to 100 nM

Q: With c1ccc([C@H]2C[C@@H]2NCC2(c3noc([C@@H]4CCCNC4)n3)CC2)cc1 [Example 139] as the compound, how does the IC50 read?
A: 50 to 100 nM

Q: How did the IC50 turn out when N[C@H]1CCC[C@@H](c2nc(C3(CN[C@@H]4C[C@H]4c4ccccc4)CC3)no2)C1 [Example 148] was run?
A: ≤ 50 nM

Q: For O=C(O)[C@H]1C[C@@H](c2nc(C3(CN[C@@H]4C[C@H]4c4ccccc4)CC3)no2)C1 [Example 150], which IC50 is on record?
A: ≤ 50 nM

Q: Which IC50 does the source give for N[C@@H](Cc1nc(C2(CN[C@@H]3C[C@H]3c3ccccc3)CC2)no1)C(=O)O [Example 152] here?
A: 100 to 500 nM

Q: For CC(C)[C@H](N)c1nc(C2(CN[C@@H]3C[C@H]3c3ccccc3)CC2)no1 [Example 154], which IC50 is on record?
A: 100 to 500 nM

Q: Which IC50 does the source give for NC1CCN(C(=O)c2nc(C3(CN[C@@H]4C[C@H]4c4ccccc4)CC3)no2)CC1 [Example 160] here?
A: ≤ 50 nM

Q: Which IC50 does the source give for O=C(O)c1ccc(CN2CCC(Cc3nc(C4(CN[C@H]5CC5c5ccccc5)CC4)no3)CC2)cc1 (some centres unmarked) [Example 164] here?
A: ≤ 50 nM

Q: How did the IC50 turn out when O=C(O)c1ccc(CN2CCC(c3nc(C4(CN[C@@H]5C[C@H]5c5ccccc5)CC4)no3)CC2)cc1 [Example 169] was run?
A: 50 to 100 nM

Q: Which IC50 does the source give for O=C(O)c1ccc(CN2CCC(c3nc(C4(CN[C@H]5C[C@@H]5c5ccccc5)CC4)no3)CC2)cc1 [Example 170] here?
A: 100 to 500 nM

Q: Which IC50 does the source give for COC(=O)[C@H]1CC[C@H](c2nc(C3(CN[C@H]4C[C@@H]4c4ccccc4)CC3)no2)CC1 [Example 172] here?
A: ≤ 50 nM

Q: For O=C(O)C1CC2(C1)CC(c1nc(C3(CN[C@H]4CC4c4ccccc4)CC3)no1)C2 (some centres unmarked) [Example 173], which IC50 is on record?
A: 100 to 500 nM

Q: How did the IC50 turn out when O=C(O)[C@H]1CC[C@@H](c2nc(C3(CN[C@H]4C[C@@H]4c4ccccc4)CC3)no2)CC1 [Example 175] was run?
A: 100 to 500 nM

Q: How did the IC50 turn out when O=C(O)C12CCC(c3nc(C4(CN[C@H]5C[C@@H]5c5ccccc5)CC4)no3)(CC1)CC2 [Example 177] was run?
A: 100 to 500 nM
